The record followed here is patent US20260306527A1, “PRMT INHIBITOR COMPOUNDS AND THE USES THEREOF” (Purdue Research Foundation, priority 2023, published 2026).

Some results are limits rather than exact numbers.

One experiment deals with PRMT3/4/5. The experiment in a line: inhibition of PRMT3/4/5 (summary). It is filed as biochemical. The note with it: range over PRMT3/4/5. Here is the method: (§1) The selectivity of compounds YD1113 and YD1290 on PRMTs were performed by Reaction Biology Corp.
Experiment [1] addresses T1, PRMT1 (Homo sapiens, UniProt Q99873).
T1 construct: made in house
Kind of experiment: selectivity of YD1113/YD1290 on PRMT panel, PRMT1. The format is biochemical. The following applies: 10 μM; PRMT panel. Put shortly: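 Radioactivity-based PRMT activity assay run by an external provider; YD1113 profiled across the PRMT panel at 10 μM.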

The target in a further experiment is PRMT5 (Homo sapiens, UniProt O14744). The experiment in a line: selectivity of YD1113 on PRMT panel, PRMT5. It is filed as biochemical. The following applies: read-out: IC50 value PRMT5. Here is the method: as §1
PRMT5, sequence (O14744 whole entry, species assumed): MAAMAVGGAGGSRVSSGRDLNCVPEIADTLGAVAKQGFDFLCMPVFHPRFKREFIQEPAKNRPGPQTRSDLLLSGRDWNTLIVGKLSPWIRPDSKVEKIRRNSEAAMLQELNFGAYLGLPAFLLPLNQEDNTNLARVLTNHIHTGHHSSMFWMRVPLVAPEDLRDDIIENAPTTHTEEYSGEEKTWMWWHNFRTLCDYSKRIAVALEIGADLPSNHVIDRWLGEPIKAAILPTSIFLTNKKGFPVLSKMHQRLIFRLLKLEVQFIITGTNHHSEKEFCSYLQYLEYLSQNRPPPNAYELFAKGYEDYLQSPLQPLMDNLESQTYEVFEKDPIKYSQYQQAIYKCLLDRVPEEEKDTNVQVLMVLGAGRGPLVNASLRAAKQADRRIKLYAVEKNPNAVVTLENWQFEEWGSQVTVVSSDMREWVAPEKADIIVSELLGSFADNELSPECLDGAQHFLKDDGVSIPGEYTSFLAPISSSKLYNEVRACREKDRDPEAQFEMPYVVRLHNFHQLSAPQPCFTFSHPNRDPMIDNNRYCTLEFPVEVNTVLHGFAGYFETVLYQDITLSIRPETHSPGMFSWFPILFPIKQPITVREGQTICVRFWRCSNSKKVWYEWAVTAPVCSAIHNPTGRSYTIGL
PRMT5, sequence (Q9BQA1 whole entry partner, species assumed): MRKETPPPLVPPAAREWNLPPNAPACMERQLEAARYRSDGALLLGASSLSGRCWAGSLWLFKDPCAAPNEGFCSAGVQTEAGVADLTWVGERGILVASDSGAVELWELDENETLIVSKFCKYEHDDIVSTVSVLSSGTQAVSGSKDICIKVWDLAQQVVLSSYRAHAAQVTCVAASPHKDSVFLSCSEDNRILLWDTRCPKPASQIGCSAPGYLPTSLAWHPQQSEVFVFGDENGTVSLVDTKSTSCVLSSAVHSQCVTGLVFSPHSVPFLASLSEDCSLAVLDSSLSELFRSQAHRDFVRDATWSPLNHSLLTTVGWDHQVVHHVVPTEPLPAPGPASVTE
Next, the selectivity of YD1113 was investigated on a panel of PRMTs at 10 μM.

In experiment [2] the target is T1, PRMT1. Kind of experiment: thermal shift assay PRMT1. The format is binding. The note with it: 100 μM compound, 10 μM protein. The method, then:
(§2) The fluorescence-based thermal shift assay was performed using a StepOne plus qPCR instrument (Thermal Fisher). For PRMT1, 10 μM of protein was mixed with 2× sypro orange and DMSO, or 100 μM SAM, or 100 μM YD1113, or 100 μM YD1290 in a buffer consisting of 2.5 mM HEPES (pH=7.0), 25 mM NaCl, 25 μM EDTA, 50 μM TCEP, 0.01% Triton X-100. For PRMT3, 20 μM of protein was mixed with 2× sypro orange and DMSO, or 100 μM SAM, or 100 μM YD1113, or 100 μM YD1290 in a buffer consisting of 20 mM Tris (pH=7.5), 0.01% Triton X-100. For PRMT4, 20 μM of protein was mixed with 2× sypro orange and DMSO, or 100 μM SAM, or 100 μM YD1113, or 100 μM YD1290 in a buffer consisting of 20 mM bicine (pH=8.5), 0.01% Triton X-100. All samples were heated from 25° C. to 75° C. at an increased rate of 0.5° C. per minute. Protein denaturation was monitored by the increased fluorescence signal of Sypro Orange, which captures exposed hydrophobic residues during thermal unfolding. The recorded curves were analyzed by the software StepOne plus and plotted in GraphPad Prism 8 software.
(§3) Next, the thermal shift assay (TSA) was conducted as an orthogonal method to examine the effects of YD1290 on the thermal stability of PRMT1, 3, and 4 (Figure S1).

Experiment [3] has as its target T2, PRMT3 (Homo sapiens, UniProt O60678). The experiment in a line: SAHH-coupled fluorescence assay, inhibition of PRMT3. The format is biochemical. More on the design: PRMT3 (residues 211-531) was cloned into the pET28a-MHL expression vector; tag of the pET28a-MHL vector (not described); made in house; host or cells: Escherichia coli BL21(DE3). The method in brief:
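Coupled SAHH/ThioGlo4 fluorescence read-out (ex 380 nm, em 505 nm) of PRMT3 (0.25 μM) methylation with 30 μM AdoMet and 5 μM SAHH. Buffer was 20 mM Tris pH 7.5 with 0.01% Triton X-100. Run in duplicate.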

The target in experiment [4] is T2, PRMT3. The experiment in a line: thermal shift assay PRMT3. The format is binding. Also noted: PRMT3 (residues 211-531) was cloned into the pET28a-MHL expression vector; tag of the pET28a-MHL vector (not described); made in house; host or cells: Escherichia coli BL21(DE3). The following applies: 100 μM compound, 20 μM protein. Here is the method: as §2, §3

T1 sequence (Q99873 whole entry, species assumed): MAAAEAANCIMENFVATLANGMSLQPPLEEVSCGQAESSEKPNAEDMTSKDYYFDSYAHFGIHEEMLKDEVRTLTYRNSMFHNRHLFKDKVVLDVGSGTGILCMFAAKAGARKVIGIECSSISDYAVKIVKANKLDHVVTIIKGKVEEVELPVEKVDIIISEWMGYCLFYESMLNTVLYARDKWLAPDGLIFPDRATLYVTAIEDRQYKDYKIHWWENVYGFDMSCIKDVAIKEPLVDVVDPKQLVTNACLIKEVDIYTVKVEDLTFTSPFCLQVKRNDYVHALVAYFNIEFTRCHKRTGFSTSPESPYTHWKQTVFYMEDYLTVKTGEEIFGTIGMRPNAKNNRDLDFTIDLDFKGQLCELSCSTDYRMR
T2 sequence (O60678 211-531): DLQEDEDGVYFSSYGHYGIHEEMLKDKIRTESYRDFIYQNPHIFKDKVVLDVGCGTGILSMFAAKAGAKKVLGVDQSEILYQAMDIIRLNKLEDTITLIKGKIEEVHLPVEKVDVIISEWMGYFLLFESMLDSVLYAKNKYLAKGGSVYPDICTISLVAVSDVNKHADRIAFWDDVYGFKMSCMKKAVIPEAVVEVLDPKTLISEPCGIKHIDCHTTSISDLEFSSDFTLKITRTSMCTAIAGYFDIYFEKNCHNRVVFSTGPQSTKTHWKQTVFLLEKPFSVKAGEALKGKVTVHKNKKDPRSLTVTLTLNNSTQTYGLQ

Regarding `Nc1ncnc2c1ncn2[C@@H]1O[C@H](CSCCNC(=O)NCc2ccccc2)[C@@H](O)[C@H]1O` [Compound 7a, 1-(2-((((2S,3S,4R,5R)-5-(6-amino-9H-purin-9-yl)-3,4-dihydroxytetrahydrofuran-2-yl)methyl)thio)ethyl)-3-benzylurea], the IC50 in the experiment on PRMT3/4/5 was 138 to 351 nM; at PRMT5, 351 nM. For the same compound, the values for the inhibition at 10 µM at PRMT1 [1] and against PRMT3 [3] were less than 35% and 80%, respectively. The thermal shift (ΔTm) at 100 µM at PRMT1 [2] came out at 0.6 °C; on PRMT3 [4], 5.8 °C.

By IC50 is commonly meant the concentration needed to halve the response being measured. Usually inhibition stands for the share of the control response that was lost under treatment. As usually defined, the ΔTm is the change in melting temperature against a reference sample.
